Data on six molecules can be found in patent US11357873B2, “Chiral cyclen compounds and their uses” (THE HONG KONG POLYTECHNIC UNIVERSITY, priority 2016, dated 2022).

Format in all cases: physicochemical
Data set [1] is described as follows: Relaxivity (r1, r2) measurement of Gd(III) complexes in water, BSA and human plasma. Also on record: r1 Human Plasma (1.5 T): unit not given beside the values. Conditions: 1.5 T, 37° C. As to the method:
This is very important because the huge difference in the inner-sphere coordinated water exchange rate between the two isomers is a key factor for applications, for example, as MRI contrast agents. To show their potential value, the two diastereomers of [GdL2]^− ([GdL2A]^− and [GdL2B]^−) were separated and their relaxivities were measured. The relaxivities of [GdL1]^−, [GdL2]^−, [GdL2A]^−, [GdL2B]^− and [GdDOTA]^− in water at different magnetic strengths (1.5 T and 11.7 T) were compared, with or without the presence of BSA and human plasma (1.5 T) (Table 1). It is clearly seen that the complexes of [GdL1]^−, [GdL2A]^− and [GdL2B]^− have relaxivity properties similar to that of the [GdDOTA]^− complex.

The nature of data set [2]: Absorption and photoluminescence (quantum yield, lifetime, q). Also noted: λabs(max): unit not given here. Conditions: for R, I(5D0 → 7F2)/I(5D0 → 7F1): asymmetry ratio, 10 in MeOH; for R, I(5D0 → 7F2)/I(5D0 → 7F1) / λabs(max): room temperature, 11 in DMSO; for q (Parker's) / q (Horrocks'): from lifetimes in H2O and D2O; for q (Parker's): first value of cell; for q (Horrocks'): second value of cell; for ΦEuEu (%): intrinsic quantum yield, calculated value; for τD2O/MeOD / τH2O/MeOH: luminescence lifetime, 5D0 → 7F2 transition; for τD2O/MeOD: D2O (MeOD for 10); for τH2O/MeOH: H2O (MeOH for 10); for ΦDMSO (%): luminescence quantum yield in DMSO; for ΦH2O/MeOH (%): luminescence quantum yield relative to quinine sulfate in 0.1M H2SO4, H2O (MeOH for 10, insoluble in H2O); for ΦHEPES (%): luminescence quantum yield, 0.1M HEPES buffer, pH 7.4; for λabs(max): 10 measured in MeOH; for ηsens (%): sensitization efficiency, calculated according to ref 61. The procedure: (§1) Absorption spectra of complexes were measured with HP UV-8453 spectrophotometer. Steady-state room temperature photoluminescence measurements were performed with an Edinburgh Instrument FLSP920 spectrophotometer equipped with a Xe900 continuous xenon lamp, μF920 microsecond flash lamp and a single photon counting photomultiplier tube. Spectra were corrected with the bundled F900 software. Solution-state measurements were conducted using quartz curettes of 10 mm path length. CPL measurements were conducted on a custom built spectrometer^63 (in Durham University) consisting of a laser driven light source (Energetiq EQ-99 LDLS, spectral range 170 to 2100 nm) coupled to an Acton SP2150 monochromator (600 g/nm, 300 nm Blaze) that allows excitation wavelengths to be selected with a 6 nm FWHM band-pass. The collection of the emitted light was facilitated (90° angle set up, 1 cm path length quartz curette) by a Lock-In Amplifier (Hinds Instruments Signaloc 2100) and Photoelastic Modulator (Hinds Instruments PEM-90). The differentiated light was focused onto an Acton SP2150 monochromator (1200 g/nm, 500 nm Blaze) equipped with a high sensitivity cooled Photo Multiplier Tube (H10723-20 Extended red-multialkali PMT based photosensor (5V)). Spectra were recorded using a 5 spectral average sequence in the range of 570-720 nm with 0.5 nm spectral intervals and 500 μs integration time. The recorded CPL spectrum underwent a 25% Fourier transformation smoothening protocol using Origin 8.0 Software (Origin Labs) to enhance appearance (all calculations were carried out using raw spectral data).
The shift in absorption is caused by electronic communication between the electropositive lanthanide center and the chromophore. […] These are not observed for 11, however, as we believe the steric effect of the planar phenyl ring of the benzyl group could not be alleviated by appropriate rotation, whereas that of the isobutyl group could.
The luminescence quantum yields of the complexes are decent in water and HEPES solution, although they are much higher in DMSO, due to the nonradiative quenching by O—H oscillators of water molecules in the second coordination sphere (Table 6). The intrinsic quantum yields^61—a calculated value evaluating the quantum yield of Eu(III) via direct metal excitation—of the complexes are calculated, and, as expected, the values are very similar, except for 10. The higher value corroborates with the shift in absorption maximum, for which we believe the reason is due to a shorter europium—chromophore distance and better interaction. On the other hand, the sensitization efficiencies of the complexes vary. […] The relatively remarkable ηsens of 13 is attributed to its structural rigidity, as both the tetraaza backbone and the acetate arms are modified with a chrial substituent, i.e., double chirality. The double chirality is also attributed for the increase in luminescence quantum yield compared to that of 12a/12b.

Data set [3] is described as follows: Circularly polarized luminescence (CPL), dissymmetry factor glum. The following applies: for glum ΔJ = 1 (λ) DMSO / glum ΔJ = 3 (λ) DMSO / glum ΔJ = 1 (λ) H2O / glum ΔJ = 3 (λ) H2O: wavelength in parentheses in the cell. The procedure:
as §1, with “Steady-state” for “Absorption spectra of complexes were measured with HP UV-8453 spectrophotometer. Steady-state”, “time.” for “time. The recorded CPL spectrum underwent a 25% Fourier transformation smoothening protocol using Origin 8.0 Software (Origin Labs) to enhance appearance (all calculations were carried out using raw spectral data).”

As to `CC[C@H]1CN(CC(=O)[O-])[C@@H](CC)CN(CC(=O)[O-])[C@@H](CC)CN(CC(=O)[O-])[C@@H](CC)CN1CC(=O)[O-].[Gd+3]` (single isomer, unassigned) [[GdL2A]^−], in data set [1] (4.5 w/v BSA), the “r1 4.5 w/v BSA (1.5 T)” value was 3.9. The “r1 Human Plasma (1.5 T)” value in data set [1] (human plasma) is reported as 2.9. Also, the “r1 Water (1.5 T)” value in data set [1] (water) is recorded as 3.0.

Consider `CC[C@H]1CN(CC(=O)[O-])[C@@H](CC)CN(Cc2cc(C#Cc3c(OC)cc(OC)cc3OC)cc(P(C)(=O)[O-])n2)[C@@H](CC)CN(CC(=O)[O-])[C@@H](CC)CN1CC(=O)[O-].[Eu+3]` [Complex 8], for which, in data set [2], the “R, I(5D0 → 7F2)/I(5D0 → 7F1)” value is on record as 2.43; the “q (Parker's)” value is recorded as 0.10; the “q (Horrocks')” value came to 0.02; the “ΦEuEu (%)” value was 26.0%. Also, in data set [2], the “τD2O/MeOD” value is given as 1.76 ms, the “τH2O/MeOH” value is 1.12 ms, the “ΦDMSO (%)” value is given as 50.0% and the “ΦH2O/MeOH (%)” value was 14.0%. Further, in data set [2], the “ΦHEPES (%)” value stood at 14.0%, the “λabs(max)” value stood at 356 and the “ηsens (%)” value is on record as 53.8%. In data set [3], the “glum ΔJ = 1 (λ) DMSO” value is given as −0.18 (591), the “glum ΔJ = 3 (λ) DMSO” value is “+0.17 (657)”, the “glum ΔJ = 1 (λ) H2O” value is −0.11 (591) and the “glum ΔJ = 3 (λ) H2O” value was −0.28 (653).

Take `CCC1CN(C(C)C(=O)[O-])C(CC)CN(C(C)C(=O)[O-])C(CC)CN(C(C)C(=O)[O-])C(CC)CN1Cc1cc(C#Cc2c(OC)cc(OC)cc2OC)cc(P(C)(=O)[O-])n1.[Eu+3]` (centres unmarked) [Complex 13]: in data set [2], the “R, I(5D0 → 7F2)/I(5D0 → 7F1)” value was 2.66; the “q (Parker's)” value turned out to be 0.00; the “q (Horrocks')” value is 0.06; the “ΦEuEu (%)” value is recorded as 30.2%. Also, in data set [2], the “τD2O/MeOD” value turned out to be 1.83 ms, the “τH2O/MeOH” value came to 1.25 ms, the “ΦDMSO (%)” value came out at 49.7% and the “ΦH2O/MeOH (%)” value was found to be 21.9%. In addition, in data set [2], the “ΦHEPES (%)” value is on record as 20.9%, the “λabs(max)” value came out at 356 and the “ηsens (%)” value is 72.6%. For the same molecule, in data set [3], the “glum ΔJ = 1 (λ) DMSO” value was −0.17 (588), the “glum ΔJ = 3 (λ) DMSO” value was −0.29 (657) and the “glum ΔJ = 3 (λ) H2O” value is reported as −0.33 (652). In addition, the “absolute glum 589 nm” value in data set [3] (aqueous solution) came out at 0.23.

Regarding `COc1cc(OC)c(C#Cc2cc(CN3CCN(C(C)C(=O)[O-])CCN(C(C)C(=O)[O-])CCN(C(C)C(=O)[O-])CC3)nc(P(C)(=O)[O-])c2)c(OC)c1.[Eu+3]` (single isomer, unassigned) [Complex 12b], in data set [2] (listed as 12b), the “R, I(5D0 → 7F2)/I(5D0 → 7F1)” value came to 2.41; the “q (Parker's)” value amounted to 0.11; the “q (Horrocks')” value worked out at 0.03; the “ΦEuEu (%)” value was 24.9%. Also, in data set [2] (listed as 12b), the “τD2O/MeOD” value came to 1.77 ms, the “τH2O/MeOH” value is 1.04 ms, the “ΦDMSO (%)” value is recorded as 44.1% and the “ΦH2O/MeOH (%)” value is given as 10.2%. In data set [2] (listed as 12b), the “ΦHEPES (%)” value turned out to be 9.8%, the “λabs(max)” value was 355 and the “ηsens (%)” value is 41.0%. Further, in data set [3] (listed as 12b), the “glum ΔJ = 1 (λ) DMSO” value is recorded as −0.11 (591), the “glum ΔJ = 3 (λ) DMSO” value is listed as −0.10 (653), the “glum ΔJ = 1 (λ) H2O” value is given as −0.04 (591) and the “glum ΔJ = 3 (λ) H2O” value is on record as −0.11 (653).

In the case of `COc1cc(OC)c(C#Cc2cc(CN3CCN(CC(=O)[O-])CCN(CC(=O)[O-])CCN(CC(=O)[O-])CC3)nc(P(C)(=O)[O-])c2)c(OC)c1.[Eu+3]` [Complex 7], in data set [2], the “R, I(5D0 → 7F2)/I(5D0 → 7F1)” value is 2.52; the “q (Parker's)” value amounted to 0.06; the “q (Horrocks')” value is 0.01; the “ΦEuEu (%)” value is recorded as 23.6%. In data set [2], the “τD2O/MeOD” value came out at 1.44 ms, the “τH2O/MeOH” value amounted to 1.01 ms, the “ΦDMSO (%)” value came out at 47.0% and the “ΦH2O/MeOH (%)” value is 7.6%. In data set [2], the “ΦHEPES (%)” value was 6.9%, the “λabs(max)” value worked out at 353 and the “ηsens (%)” value is listed as 32.3%.

As to `COc1cc(OC)c(C#Cc2cc(CN3CCN(C(C)C(=O)[O-])CCN(C(C)C(=O)[O-])CCN(C(C)C(=O)[O-])CC3)nc(P(C)(=O)[O-])c2)c(OC)c1.[Eu+3]` (single isomer, unassigned) [Complex 12a], in data set [2] (listed as 12a), the “R, I(5D0 → 7F2)/I(5D0 → 7F1)” value is 2.74; the “q (Parker's)” value stood at 0.07; the “q (Horrocks')” value amounted to 0.01; the “ΦEuEu (%)” value is recorded as 26.6%. Further, in data set [2] (listed as 12a), the “τD2O/MeOD” value is 1.70 ms, the “τH2O/MeOH” value turned out to be 1.12 ms, the “ΦDMSO (%)” value amounted to 46.4% and the “ΦH2O/MeOH (%)” value was found to be 12.7%. Further, in data set [2] (listed as 12a), the “ΦHEPES (%)” value is on record as 12.4%, the “λabs(max)” value worked out at 352 and the “ηsens (%)” value is listed as 47.0%. Also, in data set [3] (listed as 12a), the “glum ΔJ = 1 (λ) DMSO” value was −0.04 (591), the “glum ΔJ = 3 (λ) DMSO” value is listed as −0.04 (657), the “glum ΔJ = 1 (λ) H2O” value is given as −0.03 (588) and the “glum ΔJ = 3 (λ) H2O” value is given as −0.05 (653).
